{"source": "paper PMC7036132", "about": "“Effects of the Salt-Processing Method on the Pharmacokinetics and Tissue Distribution of Orally Administered Morinda officinalis How. Extract” (Journal of Analytical Methods in Chemistry, 2020)", "assay": "Pharmacokinetics in rat plasma after oral administration of MO and SMO extract (UPLC-MS/MS)", "assay_type": "in vivo, Sprague-Dawley (SD) rats", "conditions": "for Cmax: rat, plasma, po, 40 g/kg; for Cmax / AUC (0-t) / AUC (0-∞) / CL/F / MRT (0-t) / T max / V/F / t1/2z: n = 6", "protocol": "For LC-MS/MS analysis, data acquisition and instrument control were performed using MassLynx 4.1 software (Waters Corp., Milford, MA, USA). The analysis column was an Acquity UPLC HSS T3 column (100 mm × 2.1 mm, 1.8 μm, Waters) with a temperature of 40°C. The mobile phase was acetonitrile containing 0.1% formic acid (A) and 0.1% formic acid aqueous solution (B). The elution gradient was 0.00–0.50 min with 2% B; 0.51–5.00 min with 2%–30% B; and 5.01–7.00 min with 40% B. The flow rate was 0.2 mL/min.\nThe Waters triple quadruple mass spectrometer (Xevo TQD, Waters Corp., Milford, MA, USA) equipped with an electrospray ionization source (ESI) was used in negative ion mode. The desolvation gas was nitrogen with a flow rate of 500 L/h at a temperature of 250°C. All detected compounds were measured in multiple reaction monitoring (MRM) mode.\n10 μL of IS working solution and 400 μL of methanol were added to 100 μL plasma. The solution was vortexed for 10 min and then centrifuged at 12,000 rpm for 5 min. The supernatant was shifted to another centrifugation tube and dried with nitrogen at 37°C. The residue was redissolved in 100 μL acetonitrile and centrifuged for 5 min at 12,000 rpm. Five microliters of supernatant was drawn and analyzed by UPLC-MS/MS.\nThe SD rats (6, male) were housed at 22 ± 2°C and fasted for 12 h with drinking water available ad libitum. MO and SMO ethanol extract were orally administered at a dose of 40 g/kg (equivalent to 6.44 and 3.95 mg/kg of monotropein, 0.088 and 0.091 mg/kg of rubiadin, and 0.174 and 0.178 mg/kg of rubiadin 1-methyl ether). Blood samples (0.5 mL) were collected from the venous plexus of the eye socket at 0.083, 0.25, 0.5, 1.0, 1.5, 2.0, 2.5, 4.0, 6.0, 12.0, and 24 h under anesthesia. Then, the blood samples were centrifuged at 4500 rpm for 10 min, and then the plasma was immediately transferred to new tubes and stored at −80°C until analysis. The pharmacokinetic parameters were calculated using DAS software (3.0 version, China Food and Drug Administration) based on noncompartmental method. All data were recorded as mean ± SD.", "data": [{"smiles": "Cc1c(O)cc2c(c1O)C(=O)c1ccccc1C2=O", "note": "[Rubiadin, rubiadin]", "values": [{"measurement": "Tmax", "setting": "male, Sprague-Dawley, oral extract 40 g/kg, MO or SMO group not specified", "value": 1.5, "unit": "h"}, {"measurement": "Cmax", "setting": "male, Sprague-Dawley, oral MO extract 40 g/kg", "value": "46.7 ± 12.9", "unit": "ng/mL"}, {"measurement": "Cmax", "setting": "male, Sprague-Dawley, oral SMO extract 40 g/kg", "value": "50.2 ± 8.9", "unit": "ng/mL"}, {"measurement": "AUC (0-t)", "setting": "oral MO extract 40 g/kg", "value": "152.252 ± 7.098", "unit": "μg/L ∗ h"}, {"measurement": "AUC (0-∞)", "setting": "oral MO extract 40 g/kg", "value": "153.816 ± 7.169", "unit": "μg/L ∗ h"}, {"measurement": "CL/F", "setting": "oral MO extract 40 g/kg", "value": "0.261 ± 0.012", "unit": "L/g/h"}, {"measurement": "MRT (0-t)", "setting": "oral MO extract 40 g/kg", "value": "6.062 ± 0.272", "unit": "H"}, {"measurement": "T max", "setting": "oral MO extract 40 g/kg", "value": "1.5 ± 0.00", "unit": "H"}, {"measurement": "V/F", "setting": "oral MO extract 40 g/kg", "value": "1.442 ± 0.090", "unit": "L/g"}, {"measurement": "t1/2z", "setting": "oral MO extract 40 g/kg", "value": "3.838 ± 0.196", "unit": "H"}, {"measurement": "AUC (0-t)", "setting": "oral SMO extract 40 g/kg", "value": "169.355 ± 8.836", "unit": "μg/L ∗ h"}, {"measurement": "AUC (0-∞)", "setting": "oral SMO extract 40 g/kg", "value": "176.441 ± 18.283", "unit": "μg/L ∗ h"}, {"measurement": "CL/F", "setting": "oral SMO extract 40 g/kg", "value": "0.228 ± 0.022", "unit": "L/g/h"}, {"measurement": "MRT (0-t)", "setting": "oral SMO extract 40 g/kg", "value": "5.89 ± 0.265", "unit": "H"}, {"measurement": "T max", "setting": "oral SMO extract 40 g/kg", "value": "1.5 ± 0.00", "unit": "H"}, {"measurement": "V/F", "setting": "oral SMO extract 40 g/kg", "value": "1.579 ± 0.842", "unit": "L/g"}, {"measurement": "t1/2z", "setting": "oral SMO extract 40 g/kg", "value": "5.006 ± 3.383", "unit": "H"}, {"measurement": "Cmax and AUC0-t, SMO groups compared with the MO group", "setting": "oral extract 40 g/kg", "value": "elevated remarkably"}]}]}
